Assay results from patent US10407422B2, “Triazolopyridine inhibitors of myeloperoxidase” (priority 2015, dated 2019).
pIC50: −log10 of the molar value.

Legend:
[1] = target: T1, myeloperoxidase (MPO) (Homo sapiens (Human), UniProt P05164); experiment: MPO chlorination assay (APF assay); format: biochemical; conditions: potency range class
How it was run: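 Chlorinating activity followed by APF cleavage to fluorescein (485/535 nm, 3 min kinetic read) after adding APF and 10 μM H2O2. Beforehand, 200 pM enzyme, compound and 120 mM NaCl sat 10 min at room temperature in 100 mM KPi, pH 7.4. Initial-rate slopes gave % inhibition; IC50 by Hill-slope fit.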

[2] = target: T1, myeloperoxidase (MPO); experiment: MPO peroxidation assay (Amplex Red assay); format: biochemical; conditions: potency range class
How it was run: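 IC50 values come from a four-parameter fit of rates taken from the linear 180-540 s portion of a 15 min kinetic read of resorufin (Ex 535/Em 590 nm). Amplex Red (200 μM) plus 10 mM H2O2 was added after a 10 min room-temperature preincubation of inhibitor with 200 pM MPO and 40 nM H2O2 in 100 mM KPi, pH 7.4.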

T1 sequence (P05164 49-745): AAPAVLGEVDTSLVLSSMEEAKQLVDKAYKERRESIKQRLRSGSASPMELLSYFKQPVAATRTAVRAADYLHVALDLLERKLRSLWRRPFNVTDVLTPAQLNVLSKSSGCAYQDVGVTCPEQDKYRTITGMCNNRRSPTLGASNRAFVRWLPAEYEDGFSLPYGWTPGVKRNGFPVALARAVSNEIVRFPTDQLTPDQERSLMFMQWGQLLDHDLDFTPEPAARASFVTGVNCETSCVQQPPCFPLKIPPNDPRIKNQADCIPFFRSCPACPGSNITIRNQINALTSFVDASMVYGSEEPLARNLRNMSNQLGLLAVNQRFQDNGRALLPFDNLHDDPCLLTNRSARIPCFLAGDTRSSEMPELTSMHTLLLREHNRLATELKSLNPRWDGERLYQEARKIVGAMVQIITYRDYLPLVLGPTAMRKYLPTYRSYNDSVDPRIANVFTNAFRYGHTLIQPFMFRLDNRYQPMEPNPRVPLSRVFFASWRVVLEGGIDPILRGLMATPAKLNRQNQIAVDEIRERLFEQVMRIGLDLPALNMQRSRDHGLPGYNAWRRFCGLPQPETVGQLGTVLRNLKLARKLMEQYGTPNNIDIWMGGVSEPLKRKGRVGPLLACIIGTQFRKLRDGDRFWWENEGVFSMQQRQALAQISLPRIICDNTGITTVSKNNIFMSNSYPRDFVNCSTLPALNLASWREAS

Row | SMILES | pIC50 [1] | pIC50 [2]
1 | Cc1cnc(CNC(=O)c2ccc(Cn3cc(Cc4cc(N)nc5[nH]nnc45)cn3)cc2)cn1 [Example 91, 4-{[4-({5-Amino-3H-[1,2,3]triazolo[4,5-b]pyridin-7-yl}methyl)-1H-pyrazol-1-yl]methyl}-N-[(5-methylpyrazin-2-yl)methyl]benzamide] | 6.00 to 7.00 | 7.00 to 9.00
2 | Nc1cc(Cc2cnn(Cc3ccc(C(=O)NCc4cnco4)cc3)c2)c2nn[nH]c2n1 [Example 92, 4-{[4-({5-Amino-3H-[1,2,3]triazolo[4,5-b]pyridin-7-yl}methyl)-1H-pyrazol-1-yl]methyl}-N-(1,3-oxazol-5-ylmethyl)benzamide] | 5.00 to 6.00 | 6.00 to 7.00
3 | Nc1cc(Cc2cnn(Cc3ccc(C(=O)NCc4cncnc4)cc3)c2)c2nn[nH]c2n1 [Example 93, 4-{[4-({5-Amino-3H-[1,2,3]triazolo[4,5-b]pyridin-7-yl}methyl)-1H-pyrazol-1-yl]methyl}-N-(pyrimidin-5-ylmethyl)benzamide] | 6.00 to 7.00 | 7.00 to 9.00
4 | Nc1cc(Cc2cnn(Cc3ccc(C(=O)NCc4ccc(=O)[nH]c4)cc3)c2)c2nn[nH]c2n1 [Example 94, 4-{[4-({5-Amino-3H-[1,2,3]triazolo[4,5-b]pyridin-7-yl}methyl)-1H-pyrazol-1-yl]methyl}-N-[(6-oxo-1,6-dihydropyridin-3-yl)methyl]benzamide] | 6.00 to 7.00 | 7.00 to 9.00
5 | Cc1nnc(C(C)NC(=O)c2ccc(Cn3cc(Cc4cc(N)nc5[nH]nnc45)cn3)cc2)[nH]1 (centres unmarked) [Example 95, 4-{[4-({5-Amino-3H-[1,2,3]triazolo[4,5-b]pyridin-7-yl}methyl)-1H-pyrazol-1-yl]methyl}-N-[1-(5-methyl-4H-1,2,4-triazol-3-yl)ethyl]benzamide] | 6.00 to 7.00 | 6.00 to 7.00
6 | Nc1cc(Cc2cnn(Cc3ccc(C(=O)N4CCOCC4)cc3)c2)c2nn[nH]c2n1 [Example 96, 7-[(1-{[4-(Morpholine-4-carbonyl)phenyl]methyl}-1H-pyrazol-4-yl)methyl]-3H-[1,2,3]triazolo[4,5-b]pyridin-5-amine] | 6.00 to 7.00 | 7.00 to 9.00
7 | COc1cccc(Cn2cc(Cc3cc(N)nc4[nH]nnc34)cn2)c1 [Example 97, 7-((1-(3-Methoxybenzyl)-1H-pyrazol-4-yl)methyl)-3H-[1,2,3]triazolo[4,5-b]pyridin-5-amine] | 7.00 to 9.00 | 7.00 to 9.00
8 | Nc1cc(Cc2cnn(Cc3cccc(OC4CC4)c3)c2)c2nn[nH]c2n1 [Example 98, 7-((1-(3-Cyclopropoxybenzyl)-1H-pyrazol-4-yl)methyl)-3H-[1,2,3]triazolo[4,5-b]pyridin-5-amine] | 7.00 to 9.00 | 7.00 to 9.00
9 | Nc1cc(Cc2cnn(Cc3cccc(OCc4ccccc4)c3)c2)c2nn[nH]c2n1 [Example 99, 7-((1-(3-(Benzyloxy)benzyl)-1H-pyrazol-4-yl)methyl)-3H-[1,2,3]triazolo[4,5-b]pyridin-5-amine] | 7.00 to 9.00 | 7.00 to 9.00
10 | Cn1ccc(-c2cccc(Cn3cc(Cc4cc(N)nc5[nH]nnc45)cn3)c2)n1 [Example 100, 7-((1-(3-(1-Methyl-1H-pyrazol-3-yl)benzyl)-1H-pyrazol-4-yl)methyl)-3H-[1,2,3]triazolo[4,5-b]pyridin-5-amine] | 7.00 to 9.00 | 7.00 to 9.00
11 | Nc1cc(Cc2cnn(Cc3cccc(Br)c3)c2)c2nn[nH]c2n1 [Example 101, 7-((1-(3-Bromobenzyl)-1H-pyrazol-4-yl)methyl)-3H-[1,2,3]triazolo[4,5-b]pyridin-5-amine] | 7.00 to 9.00 | 7.00 to 9.00
12 | Nc1cc(Cc2cnn(Cc3cccnc3)c2)c2nn[nH]c2n1 [Example 102, 7-((1-(Pyridin-3-ylmethyl)-1H-pyrazol-4-yl)methyl)-3H-[1,2,3]triazolo[4,5-b]pyridin-5-amine] | 6.00 to 7.00 | 7.00 to 9.00
13 | Nc1cc(Cc2cnn(Cc3ccc(C(F)(F)F)cc3)c2)c2nn[nH]c2n1 [Example 103, 7-((1-(4-(Trifluoromethyl)benzyl)-1H-pyrazol-4-yl)methyl)-3H-[1,2,3]triazolo[4,5-b]pyridin-5-amine] | 6.00 to 7.00 | 6.00 to 7.00
14 | Nc1cc(Cc2cnn(Cc3ccc(OC(F)F)cc3)c2)c2nn[nH]c2n1 [Example 104, 7-((1-(4-(Difluoromethoxy)benzyl)-1H-pyrazol-4-yl)methyl)-3H-[1,2,3]triazolo[4,5-b]pyridin-5-amine] | 6.00 to 7.00 | 7.00 to 9.00
15 | COc1ccc(-c2ccc(Cn3cc(Cc4cc(N)nc5[nH]nnc45)cn3)cc2)cn1 [Example 105, 7-((1-(4-(6-Methoxypyridin-3-yl)benzyl)-1H-pyrazol-4-yl)methyl)-3H-[1,2,3]triazolo[4,5-b]pyridin-5-amine] | 6.00 to 7.00 | 6.00 to 7.00
16 | Nc1cc(Cc2cnn(Cc3cccc(Oc4ccccc4)c3)c2)c2nn[nH]c2n1 [Example 106, 7-((1-(3-Phenoxybenzyl)-1H-pyrazol-4-yl)methyl)-3H-[1,2,3]triazolo[4,5-b]pyridin-5-amine] | 7.00 to 9.00 | 7.00 to 9.00
17 | Nc1cc(Cc2cnn(Cc3cn(Cc4ccccc4)nn3)c2)c2nn[nH]c2n1 [Example 107, 7-((1-((1-Benzyl-1H-1,2,3-triazol-4-yl)methyl)-1H-pyrazol-4-yl)methyl)-3H-[1,2,3]triazolo[4,5-b]pyridin-5-amine] | 6.00 to 7.00 | 7.00 to 9.00
18 | Nc1cc(Cc2cnn(Cc3ccc(CN4CCOCC4)cc3)c2)c2nn[nH]c2n1 [Example 108, 7-((1-(4-(Morpholinomethyl)benzyl)-1H-pyrazol-4-yl)methyl)-3H-[1,2,3]triazolo[4,5-b]pyridin-5-amine] | 6.00 to 7.00 | 7.00 to 9.00
19 | Nc1cc(Cc2cnn(Cc3ccc(Cn4cccn4)cc3)c2)c2nn[nH]c2n1 [Example 109, 7-((1-(4-((1H-Pyrazol-1-yl)methyl)benzyl)-1H-pyrazol-4-yl)methyl)-3H-[1,2,3]triazolo[4,5-b]pyridin-5-amine] | 6.00 to 7.00 | 7.00 to 9.00

More lines, now with the values ahead:

Row | pIC50 [1] | pIC50 [2] | SMILES
20 | 7.00 to 9.00 | 7.00 to 9.00 | Nc1cc(Cc2cnn(Cc3ccc(Cn4ccnc4)cc3)c2)c2nn[nH]c2n1 [Example 110, 7-((1-(4-((1H-Imidazol-1-yl)methyl)benzyl)-1H-pyrazol-4-yl)methyl)-3H-[1,2,3]triazolo[4,5-b]pyridin-5-amine]
21 | 6.00 to 7.00 | 5.00 to 6.00 | Nc1cc(Cc2cnn(Cc3ccc(N4CCOCC4)cc3)c2)c2nn[nH]c2n1 [Example 111, 7-((1-(4-Morpholinobenzyl)-1H-pyrazol-4-yl)methyl)-3H-[1,2,3]triazolo[4,5-b]pyridin-5-amine]
22 | 6.00 to 7.00 | 7.00 to 9.00 | CN1CCN(c2ccc(Cn3cc(Cc4cc(N)nc5[nH]nnc45)cn3)cc2)CC1 [Example 112, 7-((1-(4-(4-Methylpiperazin-1-yl)benzyl)-1H-pyrazol-4-yl)methyl)-3H-[1,2,3]triazolo[4,5-b]pyridin-5-amine]
23 | 6.00 to 7.00 | 7.00 to 9.00 | CC(C)(C)c1ccc(Cn2cc(Cc3cc(N)nc4[nH]nnc34)cn2)cc1 [Example 113, 7-((1-(4-(tert-Butyl)benzyl)-1H-pyrazol-4-yl)methyl)-3H-[1,2,3]triazolo[4,5-b]pyridin-5-amine]
24 | 6.00 to 7.00 | 7.00 to 9.00 | Cc1nn(-c2ccccc2)nc1Cn1cc(Cc2cc(N)nc3[nH]nnc23)cn1 [Example 114, 7-((1-((5-Methyl-2-phenyl-2H-1,2,3-triazol-4-yl)methyl)-1H-pyrazol-4-yl)methyl)-3H-[1,2,3]triazolo[4,5-b]pyridin-5-amine]
25 | 6.00 to 7.00 | 7.00 to 9.00 | Nc1cc(Cc2cnn(Cc3cnn(-c4ccccn4)c3)c2)c2nn[nH]c2n1 [Example 115, 7-((1-((1-(Pyridin-2-yl)-1H-pyrazol-4-yl)methyl)-1H-pyrazol-4-yl)methyl)-3H-[1,2,3]triazolo[4,5-b]pyridin-5-amine]
26 | 6.00 to 7.00 | 7.00 to 9.00 | Nc1cc(Cc2cnn(Cc3cn(-c4ccccc4)nn3)c2)c2nn[nH]c2n1 [Example 116, 7-((1-((1-Phenyl-1H-1,2,3-triazol-4-yl)methyl)-1H-pyrazol-4-yl)methyl)-3H-[1,2,3]triazolo[4,5-b]pyridin-5-amine]
27 | 6.00 to 7.00 | 7.00 to 9.00 | Nc1cc(Cc2cnn(Cc3ccc(Cl)cc3Cl)c2)c2nn[nH]c2n1 [Example 117, 7-((1-(2,4-Dichlorobenzyl)-1H-pyrazol-4-yl)methyl)-3H-[1,2,3]triazolo[4,5-b]pyridin-5-amine]
28 | 7.00 to 9.00 | 7.00 to 9.00 | Nc1cc(Cc2cnn(CC3Cc4ccccc4C3)c2)c2nn[nH]c2n1 [Example 118, 7-((1-((2,3-Dihydro-1H-inden-2-yl)methyl)-1H-pyrazol-4-yl)methyl)-3H-[1,2,3]triazolo[4,5-b]pyridin-5-amine]
29 | 6.00 to 7.00 | 7.00 to 9.00 | Cc1nc(-c2ccc(Cl)cc2)sc1Cn1cc(Cc2cc(N)nc3[nH]nnc23)cn1 [Example 119, 7-((1-((2-(4-Chlorophenyl)-4-methylthiazol-5-yl)methyl)-1H-pyrazol-4-yl)methyl)-3H-[1,2,3]triazolo[4,5-b]pyridin-5-amine]
30 | 6.00 to 7.00 | 7.00 to 9.00 | Nc1cc(Cc2cnn(Cc3nc(-c4ccccc4)no3)c2)c2nn[nH]c2n1 [Example 120, 7-((1-((3-Phenyl-1,2,4-oxadiazol-5-yl)methyl)-1H-pyrazol-4-yl)methyl)-3H-[1,2,3]triazolo[4,5-b]pyridin-5-amine]
31 | 6.00 to 7.00 | 7.00 to 9.00 | Nc1cc(Cc2cnn(Cc3cc(-c4ccccc4)on3)c2)c2nn[nH]c2n1 [Example 121, 7-((1-((5-Phenylisoxazol-3-yl)methyl)-1H-pyrazol-4-yl)methyl)-3H-[1,2,3]triazolo[4,5-b]pyridin-5-amine]
